From PMC10686989, “Distinct activation mechanisms of β-arrestin-1 revealed by ^19F NMR spectroscopy” (Nature Communications, 2023)

Experiments:
βarr1-1-395 = experiment: 1D 19F NMR of distal CT-deleted construct; type: biochemical, human; conditions: H295C site; PIP2
From the text: The cysteine-less mutant (C59V/C125S/C140L/C150V/C242V/C251V/C269S) of the long splice variant of human βarr1 was used for introduction of single site cysteine mutation for ^19F labeling. The sequence was codon-optimized for expression in Escherichia coli and cloned into a pET-28a(+) vector (Novagen), with an N-terminal 6xHis-tag, followed by an SSG linker and a thrombin cleavage site. All mutants, including the 1–382 (βarr1-ΔCT) and 1–395 truncation constructs, were generated using site-directed mutagenesis kits (Thermo Fisher). Primer sequences for generating the mutants are listed in Supplementary Table 4.
The ^19F-labeled βarr1 was diluted to 50 μM using buffer E before incubation with peptides or PIP2. The V2Rpp, β2AR-GRK2pp/GRK6pp or PIP2 were added at 1.2-fold, 3-fold, and 1.5-fold molar ratio excess to the protein, respectively. […]
All ^19F NMR spectra were recorded at 298 K using a Bruker AVANCE III HD 800 MHz spectrometer equipped with a ^1H-^19F/^13C/^15N TCI triple resonance cryogenic probe. […] The carrier frequency was set to −68.0 ppm and the spectra were recorded with 4k points and a spectral width of 15,000 Hz. […]
All NMR data were analyzed using the MestraNova 12.0.0 software (https://mnova.pl). […] Peak intensities, integrated peak area and linewidths were determined based on the fitted results.

βarr1 = biological target: T1, βarr1 (Homo sapiens, UniProt P49407, C125S/C140L/C150V/C242V/C251V/C269S/C59V/D390C); experiment: 19F NMR titration of V2Rpp or PIP2 into βarr1 (activation); type: biochemical; conditions: V2Rpp up to 1.2:1, PIP2 up to 3.0:1 molar ratio
T1 construct: we started from a full-length functional cysteine-less βarr1 construct[20]; 6xHis-tag with SSG linker and thrombin cleavage site (N, cleaved yes); made in house; host or cells: E. coli BL21(DE3)
Method: All ^19F NMR spectra were recorded at 298 K using a Bruker AVANCE III HD 800 MHz spectrometer equipped with a ^1H-^19F/^13C/^15N TCI triple resonance cryogenic probe. All data were acquired and processed using the Bruker Topspin 4.2.0 software. For all 1D ^19F NMR experiments, the traditional one-pulse sequence was used. The carrier frequency was set to −68.0 ppm and the spectra were recorded with 4k points and a spectral width of 15,000 Hz. Because accurate calibration of the 90° excitation pulse length for individual samples is not practical due to the low protein concentrations, we used the 90° pulse length calibrated from a standard sample (0.05% Trifluoro-toluene in CDCl3) for all βarr1 samples. […] Therefore, all the ^19F experiments were conducted with a 100 ms relaxation delay, and acquired using 100,000–200,000 scans depending on the sample condition, yielding a signal-to-noise (S/N) ratio of approximately 50. […]
All NMR data were analyzed using the MestraNova 12.0.0 software (https://mnova.pl). […] Peak intensities, integrated peak area and linewidths were determined based on the fitted results. […]
(c) Estimation of the V2Rpp-βarr1 binding affinity based on peak intensity changes of the D390C site of βarr1 titrated with V2Rpp. […] The values of θ were calculated as by θ = V-,⁄(V-. + V-,), in which VS1 and VS2 correspond to the volume integrals of the peaks of S1 and S2 states, respectively. […]

T1 sequence (P49407 whole entry C59V/C125S/C140L/C150V/C242V/C251V/C269S/D390C): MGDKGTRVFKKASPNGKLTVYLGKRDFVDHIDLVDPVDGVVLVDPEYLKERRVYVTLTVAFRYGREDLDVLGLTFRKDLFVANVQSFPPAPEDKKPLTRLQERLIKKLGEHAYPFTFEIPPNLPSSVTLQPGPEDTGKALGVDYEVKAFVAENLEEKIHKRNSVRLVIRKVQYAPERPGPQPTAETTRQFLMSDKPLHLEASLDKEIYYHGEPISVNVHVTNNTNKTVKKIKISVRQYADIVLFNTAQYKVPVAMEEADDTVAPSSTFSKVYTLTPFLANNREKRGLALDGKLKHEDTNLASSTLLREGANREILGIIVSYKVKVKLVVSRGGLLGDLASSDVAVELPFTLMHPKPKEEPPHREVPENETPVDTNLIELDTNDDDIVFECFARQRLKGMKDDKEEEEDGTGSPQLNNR

SMILES: CCCCCCCC(=O)OC[C@H](COP(=O)(O)O[C@@H]1[C@H](O)[C@H](O)[C@@H](OP(=O)(O)O)[C@H](OP(=O)(O)O)[C@H]1O)OC(=O)CCCCCCC [PIP2, diC8-PI(4,5)P2]
- Transition to S2 state (βarr1-1-395): promotes the S2 conformation to an extent comparable with full-length βarr1
- Activation of βarr1 at D390C on titration (βarr1; D390C site): minimally affects
- Activation of βarr1 at H295C on titration (βarr1; H295C site): partially activates
